Activity calls are given as the source filed them. No rule for the calls is given here.
Tested on: CCRIS mutagenicity, Ames/micronucleus/aberration tests
Experiment: CCRIS mutagenicity studies
[1] = Test System: AMES SALMONELLA TYPHIMURIUM, Strain/Indicator: TA98, Metabolic Activation: NONE, Method: PREINCUBATION
[2] = Test System: AMES SALMONELLA TYPHIMURIUM, Strain/Indicator: TA100, Metabolic Activation: NONE, Method: PREINCUBATION
[3] = Test System: AMES SALMONELLA TYPHIMURIUM, Strain/Indicator: TA102, Metabolic Activation: NONE, Method: PREINCUBATION
[4] = Test System: AMES SALMONELLA TYPHIMURIUM, Strain/Indicator: TA102, Metabolic Activation: NONE, Method: STANDARD PLATE
[5] = Test System: AMES SALMONELLA TYPHIMURIUM, Strain/Indicator: TA100, Metabolic Activation: RAT, LIVER, S-9, AROCLOR 1254, Method: STANDARD PLATE

COc1cc(C(C)=O)ccc1O
mutagenic call (Test System: AMES SALMONELLA TYPHIMURIUM, Strain/Indicator: TA97, Metabolic Activation: NONE, Method: PREINCUBATION): inactive; negative
mutagenic call (Test System: AMES SALMONELLA TYPHIMURIUM, Strain/Indicator: TA97, Metabolic Activation: RAT, LIVER, S-9, AROCLOR 1254, Method: PREINCUBATION): inactive; negative
mutagenic call [1]: inactive; negative
mutagenic call (Test System: AMES SALMONELLA TYPHIMURIUM, Strain/Indicator: TA98, Metabolic Activation: RAT, LIVER, S-9, AROCLOR 1254, Method: PREINCUBATION): inactive; negative
mutagenic call [2]: inactive; negative
mutagenic call (Test System: AMES SALMONELLA TYPHIMURIUM, Strain/Indicator: TA100, Metabolic Activation: RAT, LIVER, S-9, AROCLOR 1254, Method: PREINCUBATION): inactive; negative
mutagenic call [3]: inactive; negative
mutagenic call (Test System: AMES SALMONELLA TYPHIMURIUM, Strain/Indicator: TA102, Metabolic Activation: RAT, LIVER, S-9, AROCLOR 1254, Method: PREINCUBATION): inactive; negative

[Cd]
mutagenic call (Test System: AMES SALMONELLA TYPHIMURIUM, Strain/Indicator: TA98, Metabolic Activation: NONE, Method: STANDARD PLATE): inactive; negative
mutagenic call (Test System: AMES SALMONELLA TYPHIMURIUM, Strain/Indicator: TA98, Metabolic Activation: RAT, LIVER, S-9, PHENOBARBITAL, Method: STANDARD PLATE): inactive; negative
mutagenic call [4]: active; positive
mutagenic call (Test System: AMES SALMONELLA TYPHIMURIUM, Strain/Indicator: TA102, Metabolic Activation: RAT, LIVER, S-9, PHENOBARBITAL, Method: STANDARD PLATE): inactive; negative
mutagenic call (Test System: AMES SALMONELLA TYPHIMURIUM, Strain/Indicator: TA1535, Metabolic Activation: NONE, Method: STANDARD PLATE): inactive; negative
mutagenic call (Test System: AMES SALMONELLA TYPHIMURIUM, Strain/Indicator: TA1535, Metabolic Activation: RAT, LIVER, S-9, PHENOBARBITAL, Method: STANDARD PLATE): inactive; negative
mutagenic call (Test System: AMES SALMONELLA TYPHIMURIUM, Strain/Indicator: TA1537, Metabolic Activation: NONE, Method: STANDARD PLATE): inactive; negative
mutagenic call (Test System: AMES SALMONELLA TYPHIMURIUM, Strain/Indicator: TA1537, Metabolic Activation: RAT, LIVER, S-9, PHENOBARBITAL, Method: STANDARD PLATE): inactive; negative

Cc1cc2c(cc1C)C(C)c1ccccc1-2 (configuration not stated)
mutagenic call (Test System: AMES SALMONELLA TYPHIMURIUM, Strain/Indicator: TA98, Metabolic Activation: RAT, LIVER, S-9, AROCLOR 1254, Method: STANDARD PLATE): active; positive
mutagenic call [5]: active; positive

CN(C)N
mutagenic call (End Point: IN VITRO CHROMOSOMAL ABERRATIONS, Test System: CHL CELLS, Metabolic Activation: NONE): active; positive (structural changes)
mutagenic call (End Point: IN VITRO CHROMOSOMAL ABERRATIONS, Test System: CHL CELLS, Metabolic Activation: RAT, LIVER, S-9, SODIUM PHENOBARBITAL AND 5,6-BENZOFLAVONE): active; positive (structural changes)
mutagenic call [1]: inactive; negative
mutagenic call (Test System: AMES SALMONELLA TYPHIMURIUM, Strain/Indicator: TA98, Metabolic Activation: RAT LIVER S-9, PHENOBARBITAL AND BETA-NAPHTHOFLAVONE, Method: PREINCUBATION): inactive; negative
mutagenic call [2]: inactive; negative
mutagenic call (Test System: AMES SALMONELLA TYPHIMURIUM, Strain/Indicator: TA100, Metabolic Activation: NONE, Method: STANDARD PLATE): inactive; negative
mutagenic call (Test System: AMES SALMONELLA TYPHIMURIUM, Strain/Indicator: TA100, Metabolic Activation: RAT LIVER S-9, PHENOBARBITAL AND BETA-NAPHTHOFLAVONE, Method: PREINCUBATION): inactive; negative
mutagenic call (Test System: AMES SALMONELLA TYPHIMURIUM, Strain/Indicator: TA100, Metabolic Activation: RAT, LIVER, S-9, AROCLOR 1254 (1 OR 2 MG), Method: STANDARD PLATE): inactive; negative
mutagenic call [5]: inactive; negative
mutagenic call [3]: inactive; negative
mutagenic call [4]: inactive; negative
mutagenic call (Test System: AMES SALMONELLA TYPHIMURIUM, Strain/Indicator: TA102, Metabolic Activation: RAT LIVER S-9, PHENOBARBITAL AND BETA-NAPHTHOFLAVONE, Method: PREINCUBATION): inactive; negative
mutagenic call (Test System: AMES SALMONELLA TYPHIMURIUM, Strain/Indicator: TA102, Metabolic Activation: RAT, LIVER, S-9, AROCLOR 1254 (1 OR 2 MG), Method: STANDARD PLATE): inactive; negative
mutagenic call (Test System: AMES SALMONELLA TYPHIMURIUM, Strain/Indicator: TA102, Metabolic Activation: RAT, LIVER, S-9, AROCLOR 1254, Method: STANDARD PLATE): inactive; negative
mutagenic call (Test System: AMES SALMONELLA TYPHIMURIUM, Strain/Indicator: TA104, Metabolic Activation: NONE, Method: PREINCUBATION): inactive; negative
mutagenic call (Test System: AMES SALMONELLA TYPHIMURIUM, Strain/Indicator: TA104, Metabolic Activation: RAT LIVER S-9, PHENOBARBITAL AND BETA-NAPHTHOFLAVONE, Method: PREINCUBATION): inactive; negative
mutagenic call (Test System: AMES SALMONELLA TYPHIMURIUM, Strain/Indicator: TA1530, Metabolic Activation: NONE, Method: STANDARD PLATE): active; positive
mutagenic call (Test System: AMES SALMONELLA TYPHIMURIUM, Strain/Indicator: TA1535, Metabolic Activation: NONE, Method: PREINCUBATION): inactive; negative
mutagenic call (Test System: AMES SALMONELLA TYPHIMURIUM, Strain/Indicator: TA1535, Metabolic Activation: RAT LIVER S-9, PHENOBARBITAL AND BETA-NAPHTHOFLAVONE, Method: PREINCUBATION): inactive; negative
mutagenic call (Test System: AMES SALMONELLA TYPHIMURIUM, Strain/Indicator: TA1535, Metabolic Activation: RAT, LIVER, S-9, AROCLOR 1254, Method: PREINCUBATION): inactive; negative
mutagenic call (Test System: AMES SALMONELLA TYPHIMURIUM, Strain/Indicator: TA1537, Metabolic Activation: RAT LIVER S-9, PHENOBARBITAL AND BETA-NAPHTHOFLAVONE, Method: PREINCUBATION): inactive; negative
mutagenic call (Test System: AMES SALMONELLA TYPHIMURIUM, Strain/Indicator: TA1537, Metabolic Activation: RAT, LIVER, S-9, AROCLOR 1254, Method: PREINCUBATION): inactive; negative
mutagenic call (Test System: AMES SALMONELLA TYPHIMURIUM, Strain/Indicator: TA2638, Metabolic Activation: NONE, Method: STANDARD PLATE): active; positive
mutagenic call (Test System: E. COLI, Strain/Indicator: WP2 (PKM101), Metabolic Activation: NONE, Method: STANDARD PLATE): active; positive
mutagenic call (Test System: E. COLI, Strain/Indicator: WP2 UVRA (PKM101), Metabolic Activation: NONE, Method: STANDARD PLATE): active; positive
mutagenic call (Test System: E.COLI, Strain/Indicator: WP2UVRA/PKM101, Metabolic Activation: NONE, Method: PREINCUBATION): inactive; negative
mutagenic call (Test System: E.COLI, Strain/Indicator: WP2UVRA/PKM101, Metabolic Activation: RAT LIVER S-9, PHENOBARBITAL AND BETA-NAPHTHOFLAVONE, Method: PREINCUBATION): inactive; negative
mutagenic call (Test System: E.COLI, Strain/Indicator: WP2UVRA, Metabolic Activation: NONE, Method: PREINCUBATION): inactive; negative
mutagenic call (Test System: E.COLI, Strain/Indicator: WP2UVRA, Metabolic Activation: RAT LIVER S-9, PHENOBARBITAL AND BETA-NAPHTHOFLAVONE, Method: PREINCUBATION): inactive; negative

Source: PubChem BioAssay AID1259407 (Chemical Carcinogenesis Research Information System (CCRIS), 2018)
